Experiments:
KhES1 cells [1] = test: In vitro toxicity of GCV on undifferentiated lentivirus-infected cells
Protocol: Cells were infected with the vectors. The infected cells (GFP-positive cells) were sorted using FACS ARIA II (BD).
In the case of KhES 1, KhES 1 cells were cultured overnight in medium containing 10 μM Y27632, treated with CTK, and dispersed into separate cells. The number of cells was counted, a necessary amount of cells were centrifuged (1000 rpm, 5 minutes), and resuspended in 10 μM Y27632-containing PBS. Alexa Fluor 488 anti-Human SSEA4 (BIOLEGEND) serving as an antibody for labeling undifferentiated cells (5 μL) was added to 100 μL of a cell suspension (1×10^6 cells), cells were suspended on ice for every 10 minutes during stationary placement for 30 minutes for labeling of the cells. The cells were washed once with 10 μM Y27632-containing PBS, suspended in 10 μM Y27632-containing ES medium, and then GFP-positive cells labeled with the antibody were evaluated as undifferentiated lentivirus-infected KhES 1 cells using a flow cytometer.
Cytotoxic effects after GCV administration were analyzed using the above sorted KhES1 cells and D3 cells. KhES1 cells were seeded on a 96-well plate at 1×10^5 cells per well. […] Cytotoxic effects after 4-day administration were determined by WST-8 assay, which is modified MTT assay. […] Absorbance of this formazan at 450 nm was directly measured, thereby determining the number of viable cells (E).

[2] = tested on: mouse ES/iPS cells or human ES/iPS cells; conditions: cells subcutaneously transplanted; Non-Patent Documents 7 and 8; cited from earlier work
[3] = tested on: KhES1 cells after differentiation induction treatment; test: Safety upon in vitro GCV administration to differentiated cells
Protocol: Analysis was conducted using the above sorted KhES1 cells to confirm safety upon GCV administration after differentiation induction. For differentiation induction, cells were seeded on a 96-well low adhesive plate containing ES medium (excluding LIF) at 3×10^3 cells per well. Culture was performed for one week so that an embryonic body was formed. Thereafter, subculture on a gelatin-coated dish was continued for 28 days or more so that sufficiently differentiated cells were produced. Cells subjected to differentiation induction were re-seeded on a 96-well plate at 1×10^5 cells per well. Starting from the following day, GCV was administered at 0, 0.01, 0.1, 1, 10, and 100 μg/mL to the groups of survivin-Venus-2A-HSV-tk (A), CAG-Venus-2A-HSV-tk (B), survivin-Venus-2A-puromycin lacking HSV-tk (C), and non-infected cells (NC)(D) for 4 days.

MKN45 cells [4] = test: In vitro cytotoxic effects of suicide genes plus drug, viable cell count; conditions: high concentration AZT
Protocol: In order to evaluate cytotoxicity of suicide genes in cells of each type, HSV-tk, human-tmpk, and iCaspase9 were introduced into cells, and cell killing effects were examined and compared with the addition of drugs. […] For human-tmpk and iCasp9, plasmids were introduced into cells. Cells of each type described below were seeded on a 24-well plate at the corresponding number of cells. • KhES1 cells: 4×10^4 cells/well • MKN45 cells: 2×10^4 cells/well (only tmpk iCasp9) • BJ cells: 1×10^4 cells/well
On the following day, infection with Ad.CAG-HSV-tk at MOI=10 was performed, the medium was renewed 24 hours later, and then 10 μL of GCV (10 μg/mL) was administered for 4 days. For human-tmpk and iCasp9, 0.5 μg of each plasmid was added to 25 μL of OPTI-MEM, and 2 μL of FUGENE HD (QIAGEN) was added, followed by vortexing and stationary placement of 15 minutes. The total amount of the resulting product was administered. The medium was renewed 24 hours later. Then, AZT was administered at 0, 30, 100, and 300 μM to each well of human-tmpk-transfected cells for 3 days. For iCasp3, Dimerizer was administered at 0, 0.03, 0.1, and 0.3 μM to each well for 3 days. After drug administration, cytotoxic effects were determined by counting the number of viable cells. […] Trypan blue (10 μL) was added to each collected cell suspension and the number of viable cells was counted.

MKN45 cells [5] = test: AZT sensitivity of sorted cells constitutively expressing human-tmpk versus non-infected cells (NC); type: cell-based; conditions: AZT at high concentrations
Protocol: (§1) In addition, regarding human-tmpk, after infection with a lentiviral vector, a similar experiment was conducted using sorted cells permanently-expressing the gene based on specificity to CD19.
(§2) Starting from the following day, AZT was administered at 0, 0.1, 1, 10, 100, and 1000 μM to each well for 3 days, and the number of viable cells was counted by the method described above.

Jurkat cells = test: as above; type: cell-based; conditions: AZT at high concentrations
Protocol: as §1, §2

KhES1 cells [6] = test: In vitro cytotoxic effects of suicide genes plus drug, viable cell count; type: cell-based, human; conditions: high-concentration AZT
Protocol: The total amount of the resulting product was administered. The medium was renewed 24 hours later. […] Then, 10 μL of the cells were collected.

[7] = tmpk with minimum gene modification; cited from earlier work

Nc1nc(O)c2ncn(COC(CO)CO)c2n1 [GCV, ganciclovir]
cytotoxic effects in non-infected cells (NC) (KhES1 cells [1]; GCV 1 μg/mL): cytotoxic effects were not observed | HSV-tk-non-specific cytotoxicity (KhES1 cells [1]; GCV concentration of 10 μg/mL or more): HSV-tk-non-specific cytotoxicity was observed | tumor reduction by GCV administration [2]: tumors can be reduced by GCV administration | cytotoxicity in non-infected cells (NC) after differentiation ([3]; GCV 0 to 100 μg/mL for 4 days): No cytotoxicity was observed | non-specific cell killing effects in differentiated cells ([3]; GCV at 10 μg/mL or more, compared with undifferentiated cells): Non-specific cell killing effects were not observed | specificity of GCV toxicity ([3]; undifferentiated versus differentiated KhES1 cells, with or without HSV-tk): exhibits toxicity only in undifferentiated cells under the presence of HSV-tk

Cc1cn([C@H]2C[C@H](N=[N+]=[N-])[C@@H](CO)O2)c(=O)[nH]c1=O [AZT, 3′-azido-3′-deoxythymidine]
cell damage in cells not transfected with human-tmpk (MKN45 cells [4]): Cell damage was observed even in cells not transfected with human-tmpk | cell damage in cells not infected with human-tmpk (MKN45 cells [5]): cell damage was induced at high concentrations even in cells not infected with human-tmpk | cell damage in cells not transfected with human-tmpk (Jurkat cells): cell damage was observed even in cells not transfected with human-tmpk | cell damage in cells not transfected with human-tmpk (KhES1 cells [6]): cell damage was observed even in cells not transfected with human-tmpk

B1: tmpk (F105Y): genetically improved human thymidylate kinase used as suicide gene (protein, UniProt P23919 2-212, looked up, variant F105Y)
Thymidylate kinase: AARRGALIVLEGVDRAGKSTQSRKLVEALCAAGHRAELLRFPERSTEIGKLLSSYLQKKSDVEDHSVHLLFSANRWEQVPLIKEKLSQGVTLVVDRYAFSGVAYTGAKENFSLDWCKQPDVGLPKPDLVLFLQLQLADAAKRGAFGHERYENGAFQERALRCFHQLMKDTTLNWKMVDASKSIEAVHEDIRVLSEDAIRTATEKPLGELWK
increased action on AZT-MP [7]: 200 fold

Reference: US20170051306A1, “NOVEL METHOD FOR LABELLING CANCERIZATION-CAUSING CELL IN STEM CELLS, AND THERAPY METHOD” (KAGOSHIMA UNIVERSITY, priority 2014, published 2017)
